We go through two molecules from patent US7179801B2, “Cephem compounds” (Astellas Pharma Inc., priority 2001, dated 2007).

Values after ≈ are worked out from the molar mass of the structure shown.

The test relates to Pseudomonas aeruginosa FP 2056. Put plainly: In vitro antibacterial activity (MIC), two-fold agar-plate dilution method. The following applies: FP2056; test strain Pseudomonas aeruginosa FP 2056; heart infusion agar, 37° C. for 20 hours; read-out: MIC (minimal inhibitory concentration). It is filed as cell-based. On the procedure:
In vitro antibacterial activity was determined by the two-fold agar-plate dilution method as described below. One loopful of an overnight culture of each test strain in Trypticase-soy broth (10^6 viable cells per ml) was streaked-on heart infusion agar (HI-agar) containing graded concentrations of representative test compound, and the minimal inhibitory concentration (MIC) was expressed in μg/ml after incubation at 37° C. for 20 hours.

As to `Cn1c(N)c(CCN)c[n+]1CC1=C(C(=O)[O-])N2C(=O)[C@@H](NC(=O)/C(=N\OC(C)(C)C(=O)O)c3nsc(N)n3)[C@H]2SC1` [Compound (b), 7β-[(Z)-2-(5-amino-1,2,4-thiadiazol-3-yl)-2-(1-carboxy-1-methylethoxyimino)acetamido]-3-[3-amino-4-(2-aminoethyl)-2-methyl-1-pyrazolio]methyl-3-cephem-4-carboxylate], the MIC was 0.5 mg/L (≈ 0.821 µM).
Next, `Cn1c(N)c(CCCN)c[n+]1CC1=C(C(=O)[O-])N2C(=O)[C@@H](NC(=O)/C(=N\OC(C)(C)C(=O)O)c3nsc(N)n3)[C@H]2SC1` [Compound (a), 7β-[(Z)-2-(5-amino-1,2,4-thiadiazol-3-yl)-2-(1-carboxy-1-methylethoxyimino)acetamido]-3-[3-amino-4-(3-aminopropyl)-2-methyl-1-pyrazolio]methyl-3-cephem-4-carboxylate]: 1 mg/L (≈ 1.61 µM).
